pIC50: −log10 of the molar value. Activity calls are given as the source filed them. The rule behind the calls is not given here.
Legend:
Trypanosoma brucei = test: Activity at recombinant His-tagged Trypanosoma brucei NTR assessed as oxidation of NADH/min/mg of protein after 5 mins by spectrophotometric analysis
[1] = Selectivity index, ratio of IC50 for rat L6 cells to IC50 for amastigote stage of Trypanosoma cruzi Tulahuen C4 infected in rat L6 cells; assay type: toxicity, cell-based; details: read-out: Ratio IC50
[2] = test system: Trypanosoma brucei brucei; test: Antitrypanosomal activity against wild type bloodstream form of Trypanosoma brucei brucei assessed as inhibition of parasite growth after 3 days by resazurin assay; assay type: functional, organism-based; details: 72 h

For `O=C(CN1CCN(C(c2ccccc2)c2ccc(Cl)cc2)CC1)Nc1ncc([N+](=O)[O-])s1` (centres undefined), the Activity (Trypanosoma brucei) was “inactive”.
With `O=C(CN1CCN(c2ccc(C(F)(F)F)cc2)CC1)Nc1ncc([N+](=O)[O-])s1` the Activity (Trypanosoma brucei) was “Active”.
In the case of `O=C(COc1ccc(-c2ccccc2)cc1)Nc1ncc([N+](=O)[O-])s1`, the Activity (Trypanosoma brucei) was “inactive”.
With `O=C(CN1CCN(c2ccc(Cl)c(Cl)c2)CC1)Nc1ncc([N+](=O)[O-])s1` the Activity (Trypanosoma brucei) was “inactive”.
In the case of `COc1ccc(N2CCN(CC(=O)Nc3ncc([N+](=O)[O-])s3)CC2)cc1`, the selectivity ratio [1] was 14.
For `O=C(CN1CCN(c2ccccn2)CC1)Nc1ncc([N+](=O)[O-])s1`, the Activity (Trypanosoma brucei) was “inactive” and the pIC50 [2] was 4.67.
In the case of `O=C(Cn1ccnc1[N+](=O)[O-])NCc1ccccc1`, the Activity (Trypanosoma brucei) was “Active”.
In the case of `O=C(Nc1ncc([N+](=O)[O-])s1)c1ccc(-c2ccccc2)cc1`, the Activity (Trypanosoma brucei) was “inactive”.
